Earlier results, collected in patent publication US5605915A, “Acetylenes disubstituted with a 5 substituted tetrahydronaphthyl group and with an aryl or heteroaryl group having retinoid-like biological activity” (Allergan, priority 1996, dated 1997).

System: ornithine decarboxylase (ODC)
Conditions: literature statement

SMILES: CCCCCCCCCCCCCC(=O)O[C@@H]1[C@@H](C)[C@@]2(O)[C@@H](C=C(CO)C[C@]3(O)C(=O)C(C)=C[C@@H]23)[C@@H]2C(C)(C)[C@]12OC(C)=O [12-0-tetradecanoylphorbol-13-acetate]
- effect on ODC activity: induces ODC activity

SMILES: CC1=C(/C=C/C(C)=C/C=C/C(C)=C/C(=O)O)C(C)(C)CCC1 [Retinoic acid]
- effect on ODC activity: inhibits this induction of ODC activity by TPA
